Values quoted from earlier work as cited in article PMC10071776, “Binding proteins of destruxin A from Metarhizium against insect cell” (BMC Microbiology, 2023).
Where a SMILES comes first, the peptide text is derived from it. [ ]: non-standard residue; d: D form. dLac(3-vinyl) = C=CC[C@@H](O)C(=O)O; NMeV = CN[C@H](C(=O)O)C(C)C; NMeA = CN[C@@H](C)C(=O)O; βAla = NCCC(=O)O

Key:
[1] = stated in SPR method; no measurement described, no reference given
[2] = test system: tumor; settings: no reference given
Source text: (§1) The multi-target strategy of destruxin has resulted from the evolution of interactions between Metarhizium spp. and insects. When Metarhizium spp. invades a host insect, it secretes a variety of structurally similar destruxins that attack as many tissues and organs. These produce a diseased state, weakening insect resistance and enabling successfully fungus colonization.

[3] = test system: hemocyte ATPase; settings: higher than DA; ref [13]
Source text: as §1

[4] = test system: insects; settings: no reference given
Source text: as §1

C=CC[C@H]1OC(=O)CCNC(=O)[C@H](C)N(C)C(=O)[C@H](C(C)C)N(C)C(=O)[C@H]([C@@H](C)CC)NC(=O)[C@@H]2CCCN2C1=O [DA, Destruxin A] (cyclo(I[NMeV][NMeA][βAla][dLac(3-vinyl)]P))
solubility in water [1]: insoluble in water

destruxin B [DB]
antitumor activity relative to DA [2]: greater antitumor activity than DA
affinity of DB relative to DA [3]: 100 times
insecticidal activity relative to DA [4]: lower insecticidal activity than DA
